Values of other authors in US20260151341A1, “NOVEL AMORPHOUS ACTIVE PHARMACEUTICAL INGREDIENTS” (DISRUPTIVE PHARMA AB, priority 2020, published 2026).

Conditions: mesoporous silica, study referred to by Gupte et al.

loading at which stabilized by silica: more than 32 % by weight
Structure (SMILES): CCC(C)n1ncn(-c2ccc(N3CCN(c4ccc(OCC5COC(Cn6cncn6)(c6ccc(Cl)cc6Cl)O5)cc4)CC3)cc2)c1=O (stereo not shown) [Itraconazole, itraconazole]
